The values below come from US20230192676A1, “Heterocyclic Amides as Kinase Inhibitors” (GLAXOSMITHKLINE INTELLECTUAL PROPERTY DEVELOPMENT LIMITED, priority 2017, published 2023).

In this experiment the test system is U937 cells. Kind of experiment: necroptosis assay in human monocytic leukemia U937 cells (Cell Titer-Glo ATP viability readout). In kind it is cell-based. As to conditions: U-937, viability by cellular ATP (Cell Titer-Glo), values approximate, read-out: pIC50, inhibition of necrosis in U937 cells (converted). On the procedure:
The efficacy of RIP1 inhibitors can be tested in […] in vitro using a human monocytic leukemia U937 in a necroptosis assay. As determined using the method described in S. He et al., Cell, 137(6):1100-1111 (2009) and International Patent Appln. No. PCT/IB2014/059004, now, International Patent Appln. Pub.
Viability was measured by quantitating cellular levels of ATP using the Cell Titer-Glo kit. All data are means±standard deviation of the mean.
A general note: ATP-based viability assays read luminescence as a measure of living cells.
With `Cc1nnc(N2CC[C@@H](C(=O)N3OCC[C@@H]3c3cc(F)cc(F)c3)[C@@H](F)C2)o1` [Example 18, ((R)-3-(3,5-difluorophenyl)isoxazolidin-2-yl)((3R,4S)-3-fluoro-1-(5-methyl-1,3,4-oxadiazol-2-yl)piperidin-4-yl)methanone], the IC50 was 1 to 100 nM.

Take `C[S@@+]([O-])c1cc(N2CC[C@H](C(=O)N3OCC[C@@H]3c3cc(F)cc(F)c3)[C@H](F)C2)ncn1` [Example 44, ((R)-3-(3,5-difluorophenyl)isoxazolidin-2-yl)((3S,4R)-3-fluoro-1-(6-((R)-methylsulfinyl)pyrimidin-4-yl)piperidin-4-yl)methanone]: the IC50 was 1 to 100 nM. To `N#Cc1cc(N2CCC(C(=O)N3OCC[C@H]3c3cc(F)cc(F)c3)CC2)ncn1` [Example 8, (S)-6-(4-(3-(3,5-difluorophenyl)isoxazolidine-2-carbonyl)piperidin-1-yl)pyrimidine-4-carbonitrile] belongs 1 to 100 nM; to `CN(C)C(=O)c1cc(N2CC[C@H](C(=O)N3OCC[C@H]3c3cc(F)cc(F)c3)[C@H](F)C2)ncn1` [Example 35, 6-((3S,4R)-4-((S)-3-(3,5-difluorophenyl)isoxazolidine-2-carbonyl)-3-fluoropiperidin-1-yl)-N,N-dimethylpyrimidine-4-carboxamide], 1 to 100 nM. To `CN(C)C(=O)c1cc(N2CC[C@H](C(=O)N3OCC[C@@H]3c3cc(F)cc(F)c3)[C@H](F)C2)ncn1` [Example 34, 6-((3S,4R)-4-((R)-3-(3,5-difluorophenyl)isoxazolidine-2-carbonyl)-3-fluoropiperidin-1-yl)-N,N-dimethylpyrimidine-4-carboxamide] belongs 1 to 100 nM; to `Cc1nnc(N2CC[C@H](C(=O)N3OCC[C@@H]3c3cc(F)cc(F)c3)[C@H](F)C2)o1` [Example 16, ((R)-3-(3,5-difluorophenyl)isoxazolidin-2-yl)((3S,4R)-3-fluoro-1-(5-methyl-1,3,4-oxadiazol-2-yl)piperidin-4-yl)methanone], 1 to 100 nM. To `CNC(=O)c1cc(N2CC[C@H](C(=O)N3OCC[C@@H]3c3cc(F)cc(F)c3)[C@H](F)C2)ncn1` [Example 30, 6-((3S,4R)-4-((R)-3-(3,5-difluorophenyl)isoxazolidine-2-carbonyl)-3-fluoropiperidin-1-yl)-N-methylpyrimidine-4-carboxamide] belongs 1 to 100 nM; to `NC(=O)c1cc(N2CC[C@H](C(=O)N3OCC[C@@H]3c3cc(F)cc(F)c3)[C@H](F)C2)ncn1` [Example 26, 6-((3S,4R)-4-((R)-3-(3,5-difluorophenyl)isoxazolidine-2-carbonyl)-3-fluoropiperidin-1-yl)pyrimidine-4-carboxamide], 1 to 100 nM. As for `CNC(=O)c1cc(N2CCC(C(=O)N3OCC[C@H]3c3cc(F)cc(F)c3)CC2)ncn1` [Example 9, (S)-6-(4-(3-(3,5-difluorophenyl)isoxazolidine-2-carbonyl)piperidin-1-yl)-N-methylpyrimidine-4-carboxamide], the IC50 was 1 to 100 nM.

For `C[S@+]([O-])c1cc(N2CC[C@@H](C(=O)N3OCC[C@@H]3c3cc(F)cc(F)c3)[C@@H](F)C2)ncn1` [Example 46, ((R)-3-(3,5-difluorophenyl)isoxazolidin-2-yl)((3R,4S)-3-fluoro-1-(6-((S)-methylsulfinyl)pyrimidin-4-yl)piperidin-4-yl)methanone], the IC50 was 1 to 100 nM. To `CNC(=O)c1cc(N2CC[C@@H](C(=O)N3OCC[C@@H]3c3cc(F)cc(F)c3)[C@@H](F)C2)ncn1` [Example 32, 6-((3R,4S)-4-((R)-3-(3,5-difluorophenyl)isoxazolidine-2-carbonyl)-3-fluoropiperidin-1-yl)-N-methylpyrimidine-4-carboxamide] belongs 1 to 100 nM; to `CC(=O)N1CCC(C(=O)N2OCC[C@H]2c2cc(F)cc(F)c2)CC1` [Example 2, (S)-1-(4-(3-(3,5-difluorophenyl)isoxazolidine-2-carbonyl)piperidin-1-yl)ethan-1-one], 1 to 100 nM.

Take `NC(=O)c1cc(N2CCC(C(=O)N3OCC[C@H]3c3cc(F)cc(F)c3)CC2)ncn1` [Example 4, (S)-6-(4-(3-(3,5-difluorophenyl)isoxazolidine-2-carbonyl)piperidin-1-yl)pyrimidine-4-carboxamide]: the IC50 is 1 to 100 nM.

Turning to `CN(C)C(=O)c1cc(N2CCC(C(=O)N3OCC[C@H]3c3cc(F)cc(F)c3)CC2)ncn1` [Example 10, (S)-6-(4-(3-(3,5-difluorophenyl)isoxazolidine-2-carbonyl)piperidin-1-yl)-N,N-dimethylpyrimidine-4-carboxamide], the IC50 is 1 to 100 nM. To `O=C([C@H]1CCN(c2nnco2)C[C@H]1F)N1OCC[C@@H]1c1cc(F)cc(F)c1` [Example 22, ((R)-3-(3,5-difluorophenyl)isoxazolidin-2-yl)((3S,4R)-3-fluoro-1-(1,3,4-oxadiazol-2-yl)piperidin-4-yl)methanone] belongs 1 to 100 nM; to `Cc1nnc(N2CCC(C(=O)N3OCC[C@H]3c3cc(F)cc(F)c3)CC2)o1` [Example 5, (S)-(3-(3,5-difluorophenyl)isoxazolidin-2-yl)(1-(5-methyl-1,3,4-oxadiazol-2-yl)piperidin-4-yl)methanone], 1 to 100 nM.
